Reference: US9499538B2, “Estrogen receptor modulators and uses thereof” (Seragon Pharmaceuticals, Inc., priority 2012, dated 2016)

Experiments:
[1] = system: MCF-7 cells; experiment: Breast Cancer Cell Viability Assays (MCF-7, CellTiter-Glo); type: cell-based; details: 5 days' compound exposure; for IC50: Homo sapiens, MCF7, 120 h
Summary of the method: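 Percent viability, background-subtracted against untreated wells, was taken from CellTiter-Glo luminescence after 5 days' exposure of MCF-7 cells. Compounds were tested at eleven semilog concentrations, final 0.3–0.000003 μM, in RPMI containing 10% FBS.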

[2] = biological target: T1, ER-α in MCF-7 cells (Homo sapiens, UniProt P03372); experiment: Breast Cancer Cell ER-α In Cell Western Assay (SP1); type: cell-based; details: 4 or 24 hr post compound addition; for Emax: MCF7, SP1 antibody, read-out: ER-α In Cell Western Assay (SP1) Max Response; for DC50: SP1 antibody, read-out: ER-α In Cell Western Assay (SP1) IC50
T1 construct: endogenous in cells; host or cells: MCF-7
T1 sequence (P03372 1-595): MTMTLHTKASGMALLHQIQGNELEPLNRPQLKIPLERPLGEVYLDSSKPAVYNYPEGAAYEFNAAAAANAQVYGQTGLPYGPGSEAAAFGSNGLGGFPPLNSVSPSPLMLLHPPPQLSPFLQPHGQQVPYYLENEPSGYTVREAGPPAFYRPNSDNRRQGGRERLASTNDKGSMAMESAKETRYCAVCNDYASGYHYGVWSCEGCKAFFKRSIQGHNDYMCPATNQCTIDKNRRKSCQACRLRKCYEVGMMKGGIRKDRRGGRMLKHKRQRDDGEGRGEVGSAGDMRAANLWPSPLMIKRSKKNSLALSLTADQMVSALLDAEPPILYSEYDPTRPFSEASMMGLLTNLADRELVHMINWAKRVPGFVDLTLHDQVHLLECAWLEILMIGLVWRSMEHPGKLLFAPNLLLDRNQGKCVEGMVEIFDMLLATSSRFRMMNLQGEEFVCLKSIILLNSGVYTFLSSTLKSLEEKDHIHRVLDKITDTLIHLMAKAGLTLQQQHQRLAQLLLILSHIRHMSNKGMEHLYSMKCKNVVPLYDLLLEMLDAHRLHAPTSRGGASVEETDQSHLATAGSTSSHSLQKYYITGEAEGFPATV
Summary of the method: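 ER-α levels quantified by in-cell western: SP1 signal normalised to DRAQ5 DNA stain, relative to untreated cells (% ER). Compounds at 0.3–0.000003 μM final, 11-point semilog series, 4 or 24 h exposure of MCF-7 cells grown in charcoal-stripped serum.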

Row | Compound | MCF7 Viability Assay Max Response [1] | IC50 [1] [µM] | Emax [2] [%] | DC50 [2] [µM]
1 | O=C(O)/C=C/c1ccc(/C(=C(\c2ccc(F)cc2Cl)C2CCC2)c2cc3ccccc3o2)cc1 [Example 75, (E)-3-(4-((E)-1-(Benzofuran-2-yl)-2-(2-chloro-4-fluorophenyl)-2-cyclobutylvinyl)phenyl)acrylic acid] | ++ (++ = a single % value ≧ 40%) | ≤ 0.1 | ≥ 40 | ≤ 0.1
2 | COc1cccc2c(/C(=C(/c3ccc(F)cc3Cl)C3CCC3)c3ccc(/C=C/C(=O)O)cc3)coc12 [Example 76, (E)-3-(4-((E)-2-(2-Chloro-4-fluorophenyl)-2-cyclobutyl-1-(7-methoxybenzofuran-3-yl)vinyl)phenyl)acrylic acid] | ++ (++ = a single % value ≧ 40%) | ≤ 0.1 | ≥ 40 | ≤ 0.1
3 | O=C(O)/C=C/c1ccc(/C(=C(\c2ccncc2Cl)C2CCC2)c2cc3ccccc3o2)cc1 [Example 77, (E)-3-(4-((E)-1-(Benzofuran-2-yl)-2-(3-chloropyridin-4-yl)-2-cyclobutylvinyl)phenyl)acrylic acid] | ++ (++ = a single % value ≧ 40%) | ≤ 0.1 | ≥ 40 | ≤ 0.1
4 | COc1cccc2c(/C(=C(/c3ccncc3Cl)C3CCC3)c3ccc(/C=C/C(=O)O)cc3)coc12 [Example 78, (E)-3-(4-((E)-2-(3-Chloropyridin-4-yl)-2-cyclobutyl-1-(7-methoxybenzofuran-3-yl)vinyl)phenyl)acrylic acid] | ++ (++ = a single % value ≧ 40%) | ≤ 0.1 | ≥ 40 | ≤ 0.1
5 | O=C(O)/C=C/c1ccc(/C(=C(\c2ccc(F)cc2Cl)C2CCC2)c2ccc3[nH]nnc3c2)cc1 [Example 79, (E)-3-(4-((E)-1-(1H-Benzo[d][1,2,3]triazol-5-yl)-2-(2-chloro-4-fluoro-phenyl)-2-cyclobutylvinyl)phenyl)acrylic acid] | ++ (++ = a single % value ≧ 40%) | ≤ 0.1 | ≥ 40 | ≤ 0.1
6 | O=C(O)/C=C/c1ccc(/C(=C(\c2ccc(F)cc2Cl)C2CCC2)c2cccc3[nH]ncc23)cc1 [Example 80, (E)-3-(4-((E)-2-(2-Chloro-4-fluorophenyl)-2-cyclobutyl-1-(1H-indazol-4-yl)vinyl)phenyl)acrylic acid] | ++ (++ = a single % value ≧ 40%) | ≤ 0.1 | ≥ 40 | ≤ 0.1
7 | COc1cc(/C(=C(\c2ccc(/C=C/C(=O)O)cc2)c2ccc3[nH]nc(F)c3c2)C2CCC2)ccn1 [Example 81, (E)-3-(4-((E)-2-Cyclobutyl-1-(3-fluoro-1H-indazol-5-yl)-2-(2-methoxypyridin-4-yl)vinyl)phenyl)acrylic acid] | ++ (++ = a single % value ≧ 40%) | ≤ 0.1 | ≥ 40 | ≤ 0.1
8 | N#Cc1cscc1/C(=C(\c1ccc(/C=C/C(=O)O)cc1)c1ccc2[nH]nc(F)c2c1)C1CCC1 [Example 82, (E)-3-(4-((E)-2-(4-Cyanothiophen-3-yl)-2-cyclobutyl-1-(3-fluoro-1H-indazol-5-yl)vinyl)phenyl)acrylic acid] | ++ (++ = a single % value ≧ 40%) | ≤ 0.1 | ≥ 40 | ≤ 0.1
9 | Cc1cnccc1/C(=C(\c1ccc(/C=C/C(=O)O)cc1)c1ccc2scnc2c1)C1CCC1 [Example 83, (E)-3-(4-((E)-1-(Benzo[d]thiazol-5-yl)-2-cyclobutyl-2-(3-methylpyridin-4-yl)vinyl)phenyl)acrylic acid] | ++ (++ = a single % value ≧ 40%) | ≤ 0.1 | ≥ 40 | ≤ 0.1
10 | O=C(O)/C=C/c1ccc(/C(=C(\c2cccc(-n3cccn3)c2)C2CCC2)c2ccc3[nH]nc(F)c3c2)cc1 [Example 84, (E)-3-(4-((E)-2-(3-(1H-Pyrazol-1-yl)phenyl)-2-cyclobutyl-1-(3-fluoro-1H-indazol-5-yl)vinyl)phenyl)acrylic acid] | ++ (++ = a single % value ≧ 40%) | ≤ 0.1 | ≥ 40 | ≤ 0.1
11 | COc1cc(C)c(/C(=C(\c2ccc(/C=C/C(=O)O)cc2)c2ccc3scnc3c2)C2CCC2)cn1 [Example 85, (E)-3-(4-((E)-1-(Benzo[d]thiazol-5-yl)-2-cyclobutyl-2-(6-methoxy-4-methylpyridin-3-yl)vinyl)phenyl)acrylic acid] | ++ (++ = a single % value ≧ 40%) | ≤ 0.1 | ≥ 40 | ≤ 0.1
12 | Cc1sccc1/C(=C(\c1ccc(/C=C/C(=O)O)cc1)c1ccc2scnc2c1)C1CCC1 [Example 86, (E)-3-(4-((E)-1-(Benzo[d]thiazol-5-yl)-2-cyclobutyl-2-(2-methylthiophen-3-yl)vinyl)phenyl)acrylic acid] | ++ (++ = a single % value ≧ 40%) | ≤ 0.1 | ≥ 40 | ≤ 0.1
13 | O=C(O)/C=C/c1ccc(/C(=C(\c2cccc(N3CCCC3)c2)C2CCC2)c2ccc3[nH]nc(F)c3c2)cc1 [Example 87, (E)-3-(4-((E)-2-Cyclobutyl-1-(3-fluoro-1H-indazol-5-yl)-2-(3-(pyrrolidin-1-yl)phenyl)vinyl)phenyl)acrylic acid] | ++ (++ = a single % value ≧ 40%) | ≤ 0.1 | ≥ 40 | ≤ 0.1
14 | N#Cc1cscc1/C(=C(\c1ccc(/C=C/C(=O)O)cc1)c1ccc2scnc2c1)C1CCC1 [Example 88, (E)-3-(4-((E)-1-(Benzo[d]thiazol-5-yl)-2-(4-cyanothiophen-3-yl)-2-cyclobutylvinyl)phenyl)acrylic acid] | ++ (++ = a single % value ≧ 40%) | ≤ 0.1 | ≥ 40 | ≤ 0.1
15 | COc1nccc(/C(=C(\c2ccc(/C=C/C(=O)O)cc2)c2ccc3[nH]nc(F)c3c2)C2CCC2)c1C [Example 89, (E)-3-(4-((E)-2-Cyclobutyl-1-(3-fluoro-1H-indazol-5-yl)-2-(2-methoxy-3-methylpyridin-4-yl)vinyl)phenyl)acrylic acid] | ++ (++ = a single % value ≧ 40%) | ≤ 0.1 | ≥ 40 | ≤ 0.1
16 | N#Cc1cc(F)ccc1/C(=C(\c1ccc(/C=C/C(=O)O)cc1)c1ccc2scnc2c1)C1CCC1 [Example 90, (E)-3-(4-((E)-1-(Benzo[d]thiazol-5-yl)-2-(2-cyano-4-fluorophenyl)-2-cyclobutylvinyl)phenyl)acrylic acid] | ++ (++ = a single % value ≧ 40%) | ≤ 0.1 | ≥ 40 | ≤ 0.1
17 | COc1ccc(/C(=C(\c2ccc(/C=C/C(=O)O)cc2)c2ccc3scnc3c2)C2CCC2)cc1 [Example 91, (E)-3-(4-((E)-1-(Benzo[d]thiazol-5-yl)-2-cyclobutyl-2-(4-methoxyphenyl)vinyl)phenyl)acrylic acid] | ++ (++ = a single % value ≧ 40%) | ≤ 0.1 | ≥ 40 | ≤ 0.1
18 | COc1cccc(/C(=C(\c2ccc(/C=C/C(=O)O)cc2)c2ccc3scnc3c2)C2CCC2)c1 [Example 92, (E)-3-(4-((E)-1-(Benzo[d]thiazol-5-yl)-2-cyclobutyl-2-(3-methoxyphenyl)vinyl)phenyl)acrylic acid] | ++ (++ = a single % value ≧ 40%) | ≤ 0.1 | ≥ 40 | ≤ 0.1
19 | COc1ccc(/C(=C(\c2ccc(/C=C/C(=O)O)cc2)c2ccc3scnc3c2)C2CCC2)cn1 [Example 93, (E)-3-(4-((E)-1-(Benzo[d]thiazol-5-yl)-2-cyclobutyl-2-(6-methoxypyridin-3-yl)vinyl)phenyl)acrylic acid] | ++ (++ = a single % value ≧ 40%) | ≤ 0.1 | ≥ 40 | ≤ 0.1
20 | O=C(O)/C=C/c1ccc(/C(=C(\c2ccccc2F)C2CCC2)c2ccc3scnc3c2)cc1 [Example 94, (E)-3-(4-((E)-1-(Benzo[d]thiazol-5-yl)-2-cyclobutyl-2-(2-fluorophenyl)vinyl)phenyl)acrylic acid] | ++ (++ = a single % value ≧ 40%) | ≤ 0.1 | ≥ 40 | ≤ 0.1
21 | N#Cc1ccc(/C(=C(\c2ccc(/C=C/C(=O)O)cc2)c2ccc3scnc3c2)C2CCC2)c(F)c1 [Example 95, (E)-3-(4-((E)-1-(Benzo[d]thiazol-5-yl)-2-(4-cyano-2-fluorophenyl)-2-cyclobutylvinyl)phenyl)acrylic acid] | ++ (++ = a single % value ≧ 40%) | ≤ 0.1 | ≥ 40 | ≤ 0.1
